{"source": "paper PMC8750417", "about": "“Intracellular Amplifiers of Reactive Oxygen Species Affecting Mitochondria as Radiosensitizers” (Cancers, 2021)", "key": {"A2780 cells": {"system": "A2780 cells", "test": "Cell viability, MTT assay, A2780", "assay_type": "cell-based, human", "method": "(§1) Determination of viability of cells in the presence of prodrugs and controls A2780 and BL-2 cells The medium was removed, and the cells were washed two times with DPBS, trypsinated, and resuspended in RPMI 1640 medium (A2780) supplemented with 5% FBS (for 24 h and 48 h assay) or 10% FBS (for 96 h assay) , 1% L-glutamine, and 1% penicillin/streptomycin.\n(§2) A2780 cells: This suspension was spread in the wells of a 96 -well microtiter plate (25000 cells for A2780 per well per 100 μL) and left standing at 37 °C in the chamber filled with CO2 (5%) for overnight. Stock solutions of prodrugs of different concentra tions (1 μL, solvent dmso, final concentrations in wells were 2, 5, 10, 30, 50 μM) were added to the wells and incubated for specific periods of time. Four experiments were conducted for each concentration of the prodrug. Finally, 3-(4,5-dimethylthiazol-2-yl)-2,5-diphenyltetrazolium bromide (MTT, 20 μL of the solution prepared by dissolving MTT (5 mg) in DPBS buffer (1 mL)) was added to each well, incubated for 3 h, treated with sodium dodecyl sulfate (SDS) solution (90 μL, 10% solution in 0.01 M aqueous HC l), and incubated overnight. Afterward, the intensity of the absorbance at 590 nm was measured.\n(§3) MTT is converted in live cells to blue dye with the absorbance maximum λ max at 590 nm.\nThe absorbance at 690 nm was taken as a baseline value. The baseline corrected absorbance at 590 nm (A(590 nm) − A(690 nm)) was applied to calculate the relative number of viable cells. IC50 values were determined by fitting the experimental data expressing the number of viable cells (%, Y-axis) versus drug concentration (μM, X-axis) with a line curve and the X-axis value corresponding to 50% viability was considered as IC50 value according to the line curve (Figure S50, Table S2). […]"}, "FaDu cells": {"system": "FaDu cells", "test": "Cytotoxicity MTT assay, FaDu", "assay_type": "cell-based, human", "settings": "for EC50: read-out: 50% cell survival (EC50)", "method": "(§4) Optimization of concentration of prodrugs and controls / MTT assay\n(§5) The MTT assay was also applied to assess the impact of various drugs (0.01-100 µM) on the viability of the two human head and neck squamous carcinoma cell (HNSCC) lines SAS and FaDu as well as retinal pigment epithelial ARPE-19 cells and human fibroblasts (HF). Cells were seeded into 96-well plates at concentrations of 4000 and 2000 cells per […]\n(§6) h before exposure to the drugs. All drug dilutions were prepared from 20 mM stock solutions in DMSO. The final DMSO concentration was set to 0.5% in all sample s including control. After completion of the treatment, the wells were processed according to the routine MTT protocol as described above; the formazan absorbance was then measured on a Biotek Epoch Microplate Spectrophotometer at 590 nm and corrected for the background signal at 620 nm. N≥3 independent experiments were performed for each drug candidate, cell type and treatment interval. Cell survival was recorded as function of the drug concentration, and dose-response curves were fitted with the Boltzmann equation where appropriate. We calculated the half-maximal response (EC50) as well as the EC20 (80% survival) according to the line curve (see Tables S6-S8). EC20-values were used as a basis to select the compound-specific non-toxic drug concentrations for combination with radiotherapy."}, "BL-2 cells": {"system": "BL-2 cells", "test": "Cell viability, MTT assay, BL-2", "assay_type": "cell-based, human", "method": "as §1, §2, §3\nThe absorbance at 690 nm was taken as a baseline value. The baseline corrected absorbance at 590 nm (A(590 nm) − A(690 nm)) was applied to calculate the relative number of viable cells. IC50 values were determined by fitting the experimental data expressing the number of viable cells (%, Y-axis) versus drug concentration (μM, X-axis) with a line curve and the X-axis value corresponding to 50% viability was considered as IC50 value according to the line curve (Figure S50, Table S2).\nBL-2 cells: The cells were centrifuged, the medium was removed, and the cells were washed two times with DPBS and re-suspended in RPMI 1640 medium containing 5% (48 h incubation) or 10% FBS (96 h incubation), 1% L-glutamine, and 1% penicillin/ streptomycin. This suspension was spread in the wells of a 96-well microtiter plate (50000 cells per well per 100 μL). Other steps were identical to those was described in determination of viability of adherent cells (given above) (Table S3)."}, "SAS cells": {"system": "SAS cells", "test": "Clonogenic assay (colony formation), SAS", "assay_type": "cell-based, human", "settings": "for Relative clonogenic survival: 48 h exposure, untreated control = 1", "method": "Optimization of concentration of prodrugs and controls / clonogenic assay The clonogenic survival assay is a classical approach to monitor radioresponse and drug- induced radiosensitization in cancer cells. We therefore initially determined whether the supposedly non -toxic drug concentrations defined for combinatorial treatment testing affect single cell colony formation capacity. For this pu rpose, exponentially growing SAS and FaDu cells were dissociated, single cell suspensions were prepared in standard DMEM and seeded in 6 -well plates at […]\ndefined low density (150-300 cells in 1 ml per well). After 8 h of incubation to allow cell adherence, 50% of the supernatant was exchanged by media containing the respective prodrugs at 2x concentration and exposed for 48 h. Treatment was then terminated by medium removal, and cells were allowed to grow for a period of ≥5-6 cell divisions estimated from the cell line-specific doubling times of the respective untreated controls (~7 days for SAS and ~10 days for FaDu cells). Control cells were always handled in parallel to the treated cells and thus exposed to the corresponding DMSO concentration(s). After the defined growth intervals, cells were fixed, stained and colonies of >50 cells were manually counted at low magnification to calculate plating efficiencies as the number of counted colonies relative to the number of seeded cells. Drug effect on clonogenic survival was then estimated by normalizing the colony formation of control cells to 1 (Table S9). […]"}, "human fibroblasts (HF)": {"system": "human fibroblasts (HF)", "test": "Cytotoxicity MTT assay, human fibroblasts", "assay_type": "cell-based", "settings": "read-out: 50% cell survival (EC50)", "method": "Study of synergy of prodrugs with radiotherapy for SAS and FaDu cells\nas §4, §5, §6"}}, "note": "Values joined by “and” are separate entries in the source; they are usually repeats but may differ in a detail not shown here. Equal entries are not always repeated. Where two headings read alike, the source gives them in different places.", "data": [{"smiles": "CC1(C)OB(c2ccc(COC(=O)N(Cc3cn(Cc4ccc(Cn5cc(Cc6ccccc6)nn5)cc4)nn3)[c-]3cccc3)cc2)OC1(C)C.[Fe+2].c1cc[cH-]c1", "note": "[2c]", "values": [{"measurement": "cell viability at which the effect is saturated", "setting": "A2780 cells; A2780, 24 h", "result": 70, "unit": "%"}, {"measurement": "IC50", "setting": "A2780 cells; A2780, 24 h incubation", "result": "> 30", "unit": "µM"}, {"measurement": "cell viability at which the effect is saturated", "setting": "A2780 cells; A2780, 48 h", "result": 50, "unit": "%"}, {"measurement": "IC50", "setting": "A2780 cells; A2780, 48 h incubation", "result": "> 30", "unit": "µM"}, {"measurement": "cell viability at which the effect is saturated", "setting": "A2780 cells; A2780, 96 h", "result": 43, "unit": "%"}, {"measurement": "IC50", "setting": "A2780 cells; A2780, 96 h incubation", "result": "4 ± 0.5", "unit": "µM"}, {"measurement": "80% cell survival (EC20)", "setting": "FaDu cells; 24h", "result": "> 50", "unit": "µM"}, {"measurement": "EC50", "setting": "FaDu cells; 24h", "result": "> 50", "unit": "µM"}, {"measurement": "80% cell survival (EC20)", "setting": "FaDu cells; 48h", "result": "18.0 ± 5.1", "unit": "µM"}, {"measurement": "EC50", "setting": "FaDu cells; 48h", "result": "> 50", "unit": "µM"}, {"measurement": "IC50", "setting": "BL-2 cells; BL-2, 48 h incubation", "result": "40.1 ± 6.4", "unit": "µM"}, {"measurement": "IC50", "setting": "BL-2 cells; BL-2, 96 h incubation", "result": "5.7 ± 2.7", "unit": "µM"}, {"measurement": "Relative clonogenic survival", "setting": "SAS cells; 10 µM", "result": "0.78 ± 0.13"}, {"measurement": "growth of colonies reduced to", "setting": "SAS cells; 25 µM", "result": "70 ± 10", "unit": "%"}, {"measurement": "Relative clonogenic survival", "setting": "SAS cells; 25 µM", "result": "0.70 ± 0.10"}, {"measurement": "EC50", "setting": "human fibroblasts (HF); 24h", "result": "> 50", "unit": "µM"}, {"measurement": "EC50", "setting": "human fibroblasts (HF); 48h", "result": "> 50", "unit": "µM"}]}, {"smiles": "CC1(C)OB(c2ccc(COC(=O)N(Cc3cccc(CN4CCCCC4)c3)[c-]3cccc3)cc2)OC1(C)C.[Fe+2].c1cc[cH-]c1", "note": "[5b]", "values": [{"measurement": "IC50", "setting": "A2780 cells; A2780, 48 h incubation", "result": "7 ± 2", "unit": "µM"}, {"measurement": "IC50", "setting": "A2780 cells; A2780, 96 h incubation", "result": "7 ± 2", "unit": "µM"}, {"measurement": "80% cell survival (EC20)", "setting": "FaDu cells; 24h", "result": "11.5 ± 1.3", "unit": "µM"}, {"measurement": "EC50", "setting": "FaDu cells; 24h", "result": "26.3 ± 3.4", "unit": "µM"}, {"measurement": "EC50", "setting": "FaDu cells; 48h", "result": "19.8 ± 0.3", "unit": "µM"}, {"measurement": "IC50", "setting": "BL-2 cells; BL-2, 48 h incubation", "result": "5 ± 2", "unit": "µM"}, {"measurement": "IC50", "setting": "BL-2 cells; BL-2, 96 h incubation", "result": "5 ± 3", "unit": "µM"}, {"measurement": "Relative clonogenic survival", "setting": "SAS cells; 0.5 µM", "result": "0.96 ± 0.06"}, {"measurement": "Relative clonogenic survival", "setting": "SAS cells; 1 µM", "result": "0.76 ± 0.06"}, {"measurement": "Relative clonogenic survival", "setting": "SAS cells; 2.5 µM", "result": "0.36 ± 0.15"}, {"measurement": "colony formation reduced to", "setting": "SAS cells; 10-fold lower dose than 25 µM", "result": "36 ± 15", "unit": "%"}, {"measurement": "EC50", "setting": "human fibroblasts (HF); 24h", "result": "35.5 ± 14.9", "unit": "µM"}, {"measurement": "EC50", "setting": "human fibroblasts (HF); 48h", "result": "20.8 ± 4.6", "unit": "µM"}]}, {"smiles": "CCOC(=O)CCCCCn1cc(CN(C(=O)OCc2ccc(B3OC(C)(C)C(C)(C)O3)cc2)[c-]2cccc2)nn1.[Fe+2].c1cc[cH-]c1", "note": "[compound 1]", "values": [{"measurement": "IC50", "setting": "A2780 cells; A2780, 48 h incubation", "result": "32 ± 3", "unit": "µM"}, {"measurement": "IC50", "setting": "A2780 cells; A2780, 96 h incubation", "result": "30 ± 5", "unit": "µM"}, {"measurement": "IC50", "setting": "BL-2 cells; BL-2, 48 h incubation", "result": "35 ± 2", "unit": "µM"}, {"measurement": "IC50", "setting": "BL-2 cells; BL-2, 96 h incubation", "result": "16.9 µM and 17 µM"}]}, {"smiles": "[Fe+2].c1cc[cH-]c1.c1cc[cH-]c1", "note": "[compound 6, ferrocene]", "values": [{"measurement": "IC50", "setting": "A2780 cells; A2780, 24 h incubation", "result": "> 100", "unit": "µM"}, {"measurement": "IC50", "setting": "A2780 cells; A2780, 48 h incubation", "result": "> 100", "unit": "µM"}, {"measurement": "IC50", "setting": "A2780 cells; A2780, 96 h incubation", "result": "> 100", "unit": "µM"}, {"measurement": "80% cell survival (EC20)", "setting": "FaDu cells; 24h", "result": "> 50", "unit": "µM"}, {"measurement": "EC50", "setting": "FaDu cells; 24h", "result": "> 50", "unit": "µM"}, {"measurement": "80% cell survival (EC20)", "setting": "FaDu cells; 48h", "result": "> 50", "unit": "µM"}, {"measurement": "EC50", "setting": "FaDu cells; 48h", "result": "> 50", "unit": "µM"}, {"measurement": "IC50", "setting": "BL-2 cells; BL-2, 48 h incubation", "result": "> 100", "unit": "µM"}, {"measurement": "IC50", "setting": "BL-2 cells; BL-2, 96 h incubation", "result": "> 100", "unit": "µM"}, {"measurement": "Relative clonogenic survival", "setting": "SAS cells; 25 µM", "result": "0.88 ± 0.10"}, {"measurement": "EC50", "setting": "human fibroblasts (HF); 24h", "result": "> 50", "unit": "µM"}, {"measurement": "EC50", "setting": "human fibroblasts (HF); 48h", "result": "> 50", "unit": "µM"}]}]}
